From article PMC6407917, “Identification of GSK3186899/DDD853651 as a Preclinical Development Candidate for the Treatment of Visceral Leishmaniasis” (Journal of Medicinal Chemistry, 2018)

Experiments:
Experiment in all cases: biochemical
Parameters in all cases: species or system HEK293/K-562/placenta mixed human extract; Kinobeads chemoproteomic competition binding, quantified by TMT LC-MS/MS, dose response up to 20 uM
CDK10 = CDK10 (Homo sapiens, UniProt Q15131)
DCK = DCK (Homo sapiens, UniProt P27707)
DCK, sequence (P27707 whole entry): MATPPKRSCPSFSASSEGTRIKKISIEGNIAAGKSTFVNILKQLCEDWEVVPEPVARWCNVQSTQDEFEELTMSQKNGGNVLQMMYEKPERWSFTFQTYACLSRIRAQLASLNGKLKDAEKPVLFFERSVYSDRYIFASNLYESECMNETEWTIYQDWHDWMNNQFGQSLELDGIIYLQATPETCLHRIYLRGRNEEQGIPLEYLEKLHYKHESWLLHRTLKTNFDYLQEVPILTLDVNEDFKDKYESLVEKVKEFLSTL

PRKX = PRKX (Homo sapiens, UniProt P51817)
PRKX, sequence (P51817 whole entry): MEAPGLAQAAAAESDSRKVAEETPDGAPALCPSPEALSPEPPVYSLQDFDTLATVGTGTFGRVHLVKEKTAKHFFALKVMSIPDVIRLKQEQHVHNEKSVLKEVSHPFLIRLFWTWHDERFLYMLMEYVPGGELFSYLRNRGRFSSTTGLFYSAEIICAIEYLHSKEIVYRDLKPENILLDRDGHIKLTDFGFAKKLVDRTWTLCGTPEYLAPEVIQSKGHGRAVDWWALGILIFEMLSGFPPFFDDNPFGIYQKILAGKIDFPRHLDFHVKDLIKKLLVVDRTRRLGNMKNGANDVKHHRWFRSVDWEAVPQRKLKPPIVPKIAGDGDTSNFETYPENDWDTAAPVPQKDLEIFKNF

PRKAG1 = PRKAG1 (Homo sapiens, UniProt P54619)
PRKAG1, sequence (P54619 whole entry): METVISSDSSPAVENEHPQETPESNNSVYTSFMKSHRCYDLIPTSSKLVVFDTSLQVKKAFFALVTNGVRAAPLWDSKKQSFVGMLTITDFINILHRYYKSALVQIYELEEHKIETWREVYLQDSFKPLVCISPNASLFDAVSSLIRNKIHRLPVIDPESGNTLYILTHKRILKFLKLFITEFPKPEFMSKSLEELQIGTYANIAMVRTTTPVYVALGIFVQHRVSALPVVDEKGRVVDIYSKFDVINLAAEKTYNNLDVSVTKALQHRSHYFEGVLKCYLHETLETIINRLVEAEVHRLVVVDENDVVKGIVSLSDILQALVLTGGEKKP

MAPK9 = MAPK9 (Homo sapiens, UniProt P45984)
EPHB2 = EPHB2 (Homo sapiens, UniProt P29323)
EPHB2, sequence (P29323 whole entry): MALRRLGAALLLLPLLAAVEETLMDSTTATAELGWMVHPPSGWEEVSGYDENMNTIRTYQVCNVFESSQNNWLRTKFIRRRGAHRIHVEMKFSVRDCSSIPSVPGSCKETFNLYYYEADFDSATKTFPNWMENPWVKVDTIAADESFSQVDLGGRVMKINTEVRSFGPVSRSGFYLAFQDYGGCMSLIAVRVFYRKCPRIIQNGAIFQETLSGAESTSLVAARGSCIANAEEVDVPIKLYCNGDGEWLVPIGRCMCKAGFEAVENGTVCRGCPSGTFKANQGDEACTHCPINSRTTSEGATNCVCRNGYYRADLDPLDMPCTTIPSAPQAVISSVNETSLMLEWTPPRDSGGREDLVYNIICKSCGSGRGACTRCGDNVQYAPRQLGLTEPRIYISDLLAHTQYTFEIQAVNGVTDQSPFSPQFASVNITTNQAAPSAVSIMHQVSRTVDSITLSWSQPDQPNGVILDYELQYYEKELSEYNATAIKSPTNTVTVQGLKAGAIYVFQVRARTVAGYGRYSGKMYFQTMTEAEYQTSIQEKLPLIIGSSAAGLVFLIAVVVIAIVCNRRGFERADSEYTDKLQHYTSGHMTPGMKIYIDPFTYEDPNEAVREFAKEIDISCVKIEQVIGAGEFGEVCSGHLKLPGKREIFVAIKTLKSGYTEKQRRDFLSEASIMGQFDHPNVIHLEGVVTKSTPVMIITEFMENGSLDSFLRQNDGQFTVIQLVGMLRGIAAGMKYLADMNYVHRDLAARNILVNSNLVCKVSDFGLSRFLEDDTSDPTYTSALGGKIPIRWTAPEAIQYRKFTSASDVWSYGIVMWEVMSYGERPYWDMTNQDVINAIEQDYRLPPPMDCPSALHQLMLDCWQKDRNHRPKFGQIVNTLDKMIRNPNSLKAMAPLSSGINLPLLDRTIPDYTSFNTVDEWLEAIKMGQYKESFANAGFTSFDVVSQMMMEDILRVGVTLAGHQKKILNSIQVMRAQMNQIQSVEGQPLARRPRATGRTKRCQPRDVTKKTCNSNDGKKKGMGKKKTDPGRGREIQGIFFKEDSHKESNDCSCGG

STK3 = STK3 (Homo sapiens, UniProt Q13188)
STK3, sequence (Q13188 whole entry): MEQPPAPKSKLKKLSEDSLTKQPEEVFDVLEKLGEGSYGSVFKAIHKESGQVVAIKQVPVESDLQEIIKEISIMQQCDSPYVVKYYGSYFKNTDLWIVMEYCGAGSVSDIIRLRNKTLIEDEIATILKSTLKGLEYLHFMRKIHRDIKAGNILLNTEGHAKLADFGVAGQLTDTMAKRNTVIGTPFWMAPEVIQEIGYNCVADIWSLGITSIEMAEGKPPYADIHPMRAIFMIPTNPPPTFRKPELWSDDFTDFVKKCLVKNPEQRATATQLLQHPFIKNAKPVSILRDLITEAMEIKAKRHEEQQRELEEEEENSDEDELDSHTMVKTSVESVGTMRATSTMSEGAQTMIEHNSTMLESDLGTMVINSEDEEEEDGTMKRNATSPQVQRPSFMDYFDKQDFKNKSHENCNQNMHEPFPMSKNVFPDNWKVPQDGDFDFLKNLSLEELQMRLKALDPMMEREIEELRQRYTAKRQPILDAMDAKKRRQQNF

ARAF = ARAF (Homo sapiens, UniProt P10398)
DDR1 = DDR1 (Homo sapiens, UniProt Q08345)
DDR1, sequence (Q08345 whole entry): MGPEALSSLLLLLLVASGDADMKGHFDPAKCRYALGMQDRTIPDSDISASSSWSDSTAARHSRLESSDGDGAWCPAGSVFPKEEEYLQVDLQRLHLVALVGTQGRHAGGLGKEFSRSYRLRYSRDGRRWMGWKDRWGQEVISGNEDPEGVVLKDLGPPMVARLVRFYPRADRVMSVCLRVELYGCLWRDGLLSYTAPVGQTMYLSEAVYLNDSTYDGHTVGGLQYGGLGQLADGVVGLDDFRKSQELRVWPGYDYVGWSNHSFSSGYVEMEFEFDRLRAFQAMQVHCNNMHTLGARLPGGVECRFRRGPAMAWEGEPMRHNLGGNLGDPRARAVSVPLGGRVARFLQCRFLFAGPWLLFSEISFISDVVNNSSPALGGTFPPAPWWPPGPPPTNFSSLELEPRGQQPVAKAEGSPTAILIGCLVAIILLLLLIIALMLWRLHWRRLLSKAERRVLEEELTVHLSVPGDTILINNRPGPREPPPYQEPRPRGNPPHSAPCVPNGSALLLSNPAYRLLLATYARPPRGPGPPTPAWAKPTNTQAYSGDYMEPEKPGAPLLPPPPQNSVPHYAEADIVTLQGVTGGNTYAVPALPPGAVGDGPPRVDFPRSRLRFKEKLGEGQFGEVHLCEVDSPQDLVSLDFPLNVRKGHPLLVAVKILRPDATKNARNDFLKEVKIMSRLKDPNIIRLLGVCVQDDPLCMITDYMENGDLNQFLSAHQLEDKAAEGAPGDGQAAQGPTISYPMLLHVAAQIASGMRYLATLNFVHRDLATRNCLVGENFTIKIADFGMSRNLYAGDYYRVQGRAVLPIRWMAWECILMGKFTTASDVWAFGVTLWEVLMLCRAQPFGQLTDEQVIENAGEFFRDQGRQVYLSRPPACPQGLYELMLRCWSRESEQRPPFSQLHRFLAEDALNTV

CSNK2B = CSNK2B (Homo sapiens, UniProt P67870)
CSNK2B, sequence (P67870 whole entry): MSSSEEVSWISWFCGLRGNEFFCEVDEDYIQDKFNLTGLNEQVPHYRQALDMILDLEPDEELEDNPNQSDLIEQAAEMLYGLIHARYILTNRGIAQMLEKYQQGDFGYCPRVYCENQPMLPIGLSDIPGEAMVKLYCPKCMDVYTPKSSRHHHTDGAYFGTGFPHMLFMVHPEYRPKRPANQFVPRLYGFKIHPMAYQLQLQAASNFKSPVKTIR

STK39 = STK39 (Homo sapiens, UniProt Q9UEW8)
NEK7 = NEK7 (Homo sapiens, UniProt Q8TDX7)
RPS6KA5 = RPS6KA5 (Homo sapiens, UniProt O75582)
RPS6KA5, sequence (O75582 whole entry): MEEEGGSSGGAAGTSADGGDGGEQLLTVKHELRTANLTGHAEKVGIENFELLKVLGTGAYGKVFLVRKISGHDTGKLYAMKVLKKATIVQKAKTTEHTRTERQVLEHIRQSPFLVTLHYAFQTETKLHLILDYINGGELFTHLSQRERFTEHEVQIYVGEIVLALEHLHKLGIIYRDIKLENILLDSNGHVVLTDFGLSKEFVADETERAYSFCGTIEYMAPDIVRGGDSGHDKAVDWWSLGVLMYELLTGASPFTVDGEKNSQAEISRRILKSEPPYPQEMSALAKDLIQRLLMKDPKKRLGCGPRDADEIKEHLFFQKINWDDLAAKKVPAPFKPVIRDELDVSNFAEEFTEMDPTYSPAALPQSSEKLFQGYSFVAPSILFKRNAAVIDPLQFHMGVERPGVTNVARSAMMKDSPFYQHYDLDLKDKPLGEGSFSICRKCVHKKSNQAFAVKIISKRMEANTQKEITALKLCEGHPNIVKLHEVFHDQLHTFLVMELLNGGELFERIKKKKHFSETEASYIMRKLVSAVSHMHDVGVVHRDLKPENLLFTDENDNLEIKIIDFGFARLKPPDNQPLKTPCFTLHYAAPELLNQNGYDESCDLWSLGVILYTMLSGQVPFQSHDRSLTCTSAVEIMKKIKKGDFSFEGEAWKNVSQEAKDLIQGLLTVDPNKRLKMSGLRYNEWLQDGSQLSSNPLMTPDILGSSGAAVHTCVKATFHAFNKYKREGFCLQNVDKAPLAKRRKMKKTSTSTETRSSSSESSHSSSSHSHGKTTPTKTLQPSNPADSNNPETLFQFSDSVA

MAST3 = MAST3 (Homo sapiens, UniProt O60307)
CDC42BPA = CDC42BPA (Homo sapiens, UniProt Q5VT25)
MAPKAPK3 = MAPKAPK3 (Homo sapiens, UniProt Q16644)
ACVR1 = ACVR1 (Homo sapiens, UniProt Q04771)
MAP4K1 = MAP4K1 (Homo sapiens, UniProt Q92918)
STK38 = STK38 (Homo sapiens, UniProt Q15208)
STK38, sequence (Q15208 whole entry): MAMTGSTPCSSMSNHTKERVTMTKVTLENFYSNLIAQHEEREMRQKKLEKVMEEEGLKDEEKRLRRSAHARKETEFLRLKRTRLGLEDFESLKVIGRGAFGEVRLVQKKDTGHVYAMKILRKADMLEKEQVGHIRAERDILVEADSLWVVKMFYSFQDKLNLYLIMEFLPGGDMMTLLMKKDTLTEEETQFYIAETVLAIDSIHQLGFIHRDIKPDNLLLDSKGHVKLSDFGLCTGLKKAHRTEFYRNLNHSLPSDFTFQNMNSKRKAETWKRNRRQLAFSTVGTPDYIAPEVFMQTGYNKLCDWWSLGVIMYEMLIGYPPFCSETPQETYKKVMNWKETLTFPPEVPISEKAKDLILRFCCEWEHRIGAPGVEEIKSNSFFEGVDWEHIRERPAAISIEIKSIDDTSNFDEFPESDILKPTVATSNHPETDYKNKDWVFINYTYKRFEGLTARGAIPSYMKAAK

CDK9 = CDK9 (Homo sapiens, UniProt P50750)
DYRK1A = DYRK1A (Homo sapiens, UniProt Q13627)

Measured: IC50

COc1nc(N[C@H]2CC[C@H](NS(=O)(=O)CC(C)C)CC2)nc2[nH]nc(N3CCOC[C@H]3C)c12 [compound 39, N-(trans-4-((4-Methoxy-3-((R)-3-methylmorpholino)-1H-pyrazolo[3,4-d]pyrimidin-6-yl)amino)cyclohexyl)-2-methylpropane-1-sulfonamide]
≥ 20 µM: all assays above
